The subject of series [1] is moderate to severe acne patients. The note with it: oral, at 12 weeks; cited from earlier work.
Series [2] relates to hamster ear sebaceous glands. As to the kind of experiment: Hamster ear sebaceous gland model, repeat topical application. It is filed as in vivo, Syrian golden hamster. On the procedure: The Syrian golden hamster ([…]) ear sebaceous gland model was used to evaluate the effect of repeat application of TOFA and TOFA analogs. Male animals were employed since they have larger sebaceous glands than females a consequence of their higher endogenous levels of androgenic hormones. To define compound effects, cross-sections prepared from hamster ears were treated with the neutral lipid-specific stain Oil Red O. Staining results were compared to the untreated ear of the same animal in order to account for any changes in the overall physiological state of the animal as well as potential systemic effects stemming from local drug application.
Typically, compounds were prepared and applied in 40% dimethyl acetamide (DMA)/30% acetone/30% ethanol (vehicle). Animals were typically 10-12 weeks of age and 100-150 g bodyweight at the start of the experiment. Treatment groups consisted of 5-8 animals. Non-anesthetized hamsters were administered the test material onto the ventral surface of the right ear using a pipette at a volume of 20 μl per ear. Materials were gently massaged into the treatment site with a gloved finger for approximately 15 sec. Hamsters received treatment once daily for 15-28 consecutive days. Application of the test articles occurred within the same 4-hour period on each application day. The left ear remained untreated and served as an internal control site. Animals were evaluated daily for general appearance and potential clinical signs related to treatment such as edema, erythema, discoloration or other changes to the ears. Hamsters were also assessed for general health by coat appearance, behavior, and activity level.
Animals were euthanized by CO2 asphyxiation approximately 16-20 h following the final (21st) application. Tissue samples for sebaceous gland analysis were subsequently taken by histology personnel. The right (treated) and left (untreated) ears were carefully removed from euthanized hamsters. A 3.5 mm punch biopsy of the treated ear was marked with a marking dye on the ventral surface. A punch biopsy of the untreated ear was marked with a separate tissue-marking dye on the ventral surface. Tissues were embedded in a labeled mold filled with “Neg 50” cryo-embedding medium and frozen on liquid nitrogen. These blocks were sequentially wrapped in Parafilm® then aluminum foil for storage at −70° C. until required.
To assess sebaceous gland status, ear cross-sections were initially cut at a thickness of approximately 8 μm onto glass slides and immediately fixed with 10% buffered formalin. Sections were stained with the lipid-specific Oil Red O dye by standard methods, covered with Faramount (Dakocytomation, Ca) acrylic mounting medium, cover slipped and then allowed to set. […] Tissue sections stained with Oil Red O were viewed with a Spot RT digital camera mounted on an Olympus BX60 microscope. An image of the section was taken using the 4× microscope objective. The image was saved using the unique animal identification number, slide number, and magnification. Relative sebaceous gland areas (red staining areas) were determined using Image-Pro software (Media Cybernetics Inc., Silver Spring, Md.). The area of image analysis was the dermis which included the region from the epidermal-dermal junction to the midline of the tissue demarcated by the central cartilage line. Data was expressed as percentage of the area of the tissue cross section which was red in color, representative of lipid-containing structures, in comparison to the total area analyzed.
In these experiments, the compound of the invention, TOFA and vehicle were applied onto male hamster ears. At the end of treatment, the hamsters were sacrificed and the area of sebaceous glands in the treated area was determined. […]

A short description of series [3]: Determination of solubility in synthetic sebum. It is filed as physicochemical. The note with it: oil or lipid, thermodynamic from solid, 32° C., agitated overnight, HPLC, read-out: Solubility in Liquid Synthetic Sebum. On the procedure: Compounds described herein can be tested to evaluate their solubility in lipids. To determine the solubility, a synthetic sebum mixture was used. More specifically, approximately 5 mg of a compound was added into 1.5 ml eppendorf tubes, which was then combined with 0.1 ml of synthetic sebum and then briefly vortexed. Mixtures were placed samples in a shaker pre-heated to 32° C. and then agitated overnight. Prior to sampling for HPLC analysis, tubes were placed in an eppendorf centrifuge and spun at 13000 rpm for 5 min to pellet the insoluble drug portion. Following centrifugation, 20 ul of the top portion of the soluble fraction was sampled, in triplicate, into a 2 ml HPLC vial for analysis and the mass recorded. One ml of THF was then added to each vial to solubilize sebum. To determine their concentrations, HPLC analysis of all compounds was carried out under the same running conditions.

A further series has as its system SZ95 sebocytes. As to the kind of experiment: Inhibition of lipid synthesis in SZ95 sebocytes. Type of series: cell-based, human. The note with it: 96-well microtiter plate format. On the procedure: The immortalized human sebocyte cell line, SZ95, was maintained in culture as described in Zouboulis, C. C. et al., J. Invest. Dermatol. (1999), Vol. 113, pp. 1011-1020. Lipid synthesis was stimulated by treating SZ95 cells with arachidonic acid (AA). For measurement of lipid production and lipid inhibition studies, test compounds were dissolved in dimethylsulfoxide (DMSO) and added at the desired concentration in 96-well microtiter plates. The cells were then cultured for up to 72 hours before the plates were washed 3 times with PBS and a final volume of 200 μL PBS/well was added. […] Plate fluorescence was then quantified using a fluorometric plate reader (excitation wavelength: 490 nm; emission wavelength: 590 nm). Inhibition of lipid levels by the test compound was expressed as the % reduction of the fluorescence of AA-stimulated cells in the presence of the test compound relative to the values obtained for the unstimulated control cells. Cell viability was measured by utilizing the conversion of a tetrazolium reagent (MTS) to a colored-formazan product by live cells. […] The color development of the wells was measured using a plate reader at an absorbance of […]. Effect on cell viability by the test compound was expressed as the % reduction of the absorbance for AA-stimulated cells in the presence of the test compound relative to the values obtained for the untreated control cells.

Setting [4] is: 21 consecutive days, 75 mM, ear cross-sections (FIG. 3).

Converted amounts (≈) assume the structure as drawn.

In the case of `CC(c1cc2ccccc2s1)N(O)C(N)=O` (centres unmarked) [Zileuton], in series [1], the “reduction in inflammatory lesions” value is on record as 71% and the “reduction of sebum lipids” value was 65%.

Turning to `CCCCCCCCCCCCCCOc1ccc(C(=O)O)o1` [TOFA, 5-(tetradecyloxy)-2-furancarboxylic acid], the “inflammatory cell presence in skin sections” value in series [2] (setting [4]) is “No appreciable inflammatory cell presence”. For the same molecule, the “tolerability of repeat topical applications” value in series [2] (hamster, in vivo) is “well-tolerated”. The solubility in series [3] was found to be 1.5 ± 0.4 mg/mL (≈ 4.62 mM).

As for `CCCCCCCCCCCCCCOc1ccc(C(=O)OCc2oc(=O)oc2C)o1` [Compound C, (5-methyl-2-oxo-1,3-dioxol-4-yl)methyl 5-(tetradecyloxy)furan-2-carboxylate], the solubility in series [3] turned out to be 13.6 ± 1.9 mg/mL (≈ 31.2 mM).

In the case of `CCCCCCCCCCCCCCOc1ccc(C(=O)OC(C)C)o1` [Compound B, isopropyl 5-(tetradecyloxy)furan-2-carboxylate], the solubility in series [3] amounted to 43 ± 0.5 mg/mL (≈ 117 mM).

For the molecule `CCCCC/C=C\C/C=C\C/C=C\C/C=C\CCCC(=O)O` [arachidonic acid], the “increase of SZ95 sebocyte lipid levels” value in the series on SZ95 sebocytes was “approximately 5 fold”.

As for `CCCCCCCCCCCCCCOc1ccc(C(=O)OCC(F)(F)F)o1` [Compound A, 2,2,2-trifluoroethyl 5-(tetradecyloxy)furan-2-carboxylate], in series [2] (setting [4]), the “inflammatory cell presence in skin sections” value is “No appreciable inflammatory cell presence” and the “sebaceous gland area, histological appearance (Oil Red O)” value is reported as “Reduced sebaceous gland area”. In addition, the “average gland area lower in comparison to vehicle-treated animals” value in series [2] (after 21 days of application in 40% DMA/30% acetone/30% ethanol (FIG. 2)) stood at 63.5%. Moreover, the “sebaceous gland counts versus control values” in series [2] (samples prepared two weeks after completion of 21-day treatment) is “significantly lower”. Also, the “sebaceous gland area compared to TOFA and vehicle (FIG. 1)” value in series [2] (topical daily at 75 mM for 21 days in 40% DMA/30% acetone/30% ethanol) is “ability to reduce sebaceous gland area”. In series [3], the solubility amounted to 28.9 ± 9.2 mg/mL (≈ 71.1 mM).

The solubility is how much of the substance goes into solution per volume.
